This note sets out measurements from patent US8227613B2, “Heteroaryl carboxamide derivatives” (Hoffmann-La Roche Inc., priority 2008, dated 2012).

This experiment has as its target T1, human chemokine receptor 2 isoform B (CCR2B) (Homo sapiens, UniProt P41597).
T1 construct: host or cells: CHO-K1 (CHOK1-CCR2B-A5)
T1 sequence (P41597 1-360 isoform P41597-2): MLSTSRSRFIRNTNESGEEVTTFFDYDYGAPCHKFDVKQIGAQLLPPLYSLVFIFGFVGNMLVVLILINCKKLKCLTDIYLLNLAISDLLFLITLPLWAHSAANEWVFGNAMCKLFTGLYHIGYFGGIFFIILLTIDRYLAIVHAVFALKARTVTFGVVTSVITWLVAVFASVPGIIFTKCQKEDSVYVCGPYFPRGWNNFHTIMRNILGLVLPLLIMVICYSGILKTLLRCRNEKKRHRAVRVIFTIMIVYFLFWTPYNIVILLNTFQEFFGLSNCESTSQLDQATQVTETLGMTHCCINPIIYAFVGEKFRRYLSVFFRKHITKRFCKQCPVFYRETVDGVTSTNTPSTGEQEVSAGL
Kind of experiment: Calcium mobilization assay (FLIPR, MCP-1 stimulated CHOK1-CCR2B-A5 cells). The conditions noted are these: 20 nM MCP-1, antagonist activity, read-out: IC50 (inhibitor concentration required for 50% inhibition of specific calcium increases). The experiment is classed as cell-based. As for the experimental part:
Calcium Mobilization Assay
CHOK1-CCR2B-A5 cells (from Euroscreen) stably overexpressing the human chemokine receptor 2 isoform B were cultured in Nutrient Hams F12 medium supplemented with 5% FBS, 100 U/ml penicillin, 100 μg/ml streptomycin, 400 μg/ml G418 and 5 μg/ml puromycin.
For the assay cells were grown overnight in 384-well black clear flat bottom polystyrene plates (Costar) at 37° C. at 5% CO2. After washing with DMEM, 20 mM Hepes, 2.5 mM probenecid, 0.1% BSA (DMEM assay buffer) cells were loaded with 4 μM Fluo-4 in the same DMEM assay buffer for 2 hours at 30° C. Excess dye was removed and cells were washed with DMEM assay buffer. 384-well compound plates were prepared with DMEM assay buffer/0.5% DMSO with or without various concentrations of test compounds. Usually compounds were tested for agonist and antagonist activity.
Test compounds were added to the assay plate and agonist activity was monitored as fluorescence for 80 seconds with a FLIPR (488 nm excitation; 510-570 nm emission; Molecular Devices). After 20-30 min. of incubation at 30° C., 20 nM MCP-1 (R&D; Roche) was added and fluorescence was monitored again for 80 seconds. Increases in intracellular calcium are reported as maximum fluorescence after agonist exposure minus basal fluorescence before exposure. Antagonist activity is indicated as inhibitor concentration required for 50% inhibition of specific calcium increases.
As to `Cc1cc(-c2cccc(C(F)(F)F)c2)c2nnnn2c1C(=O)N1CCC(N2CCCC2)CC1` [Example 65, [6-Methyl-8-(3-trifluoromethyl-phenyl)-tetrazolo[1,5-a]pyridin-5-yl]-(4-pyrrolidin-1-yl-piperidin-1-yl)-methanone], the IC50 was determined as 7.6 nM.
With `Cc1cc(-c2cccc(C(F)(F)F)c2)cnc1C(=O)N1CCC(N2CCCC2)CC1` [Example 1, [3-Methyl-5-(3-trifluoromethyl-phenyl)-pyridin-2-yl]-(4-pyrrolidin-1-yl-piperidin-1-yl)-methanone], the IC50 was found to be 18 nM.
The value for `Cc1cc(-c2cccc(C(F)(F)F)c2)c(-c2cncnc2)nc1C(=O)N1CCC(N2CCCC2)CC1` [Example 17, [3-Methyl-6-pyrimidin-5-yl-5-(3-trifluoromethyl-phenyl)-pyridin-2-yl]-(4-pyrrolidin-1-yl-piperidin-1-yl)-methanone] was 8.7 nM; that for `Cc1cc(-c2ccc(Cl)c(Cl)c2)cnc1C(=O)N1CCC(N2CCCC2)CC1` [Example 28, [5-(3,4-Dichloro-phenyl)-3-methyl-pyridin-2-yl]-(4-pyrrolidin-1-yl-piperidin-1-yl)-methanone] was 250 nM.
With `Cc1cc(-c2cccc(C(F)(F)F)c2)c(-c2cnn[nH]2)nc1C(=O)N1CCC(N2CCCC2)CC1` [Example 32, [3-Methyl-6-(1H-[1,2,3]triazol-4-yl)-5-(3-trifluoromethyl-phenyl)-pyridin-2-yl]-(4-pyrrolidin-1-yl-piperidin-1-yl)-methanone], the IC50 is 23 nM.
Take `Cc1cc(-c2cccc(C(F)(F)F)c2)c(C(=O)N2CCNCC2)nc1C(=O)N1CCC(N2CCCC2)CC1` [Example 61, [5-Methyl-6-(4-pyrrolidin-1-yl-piperidine-1-carbonyl)-3-(3-trifluoromethyl-phenyl)-pyridin-2-yl]-piperazin-1-yl-methanone]: the IC50 was 320 nM.
As for `Cc1cc(-c2cccc(C(F)(F)F)c2)c(Oc2cccnc2)nc1C(=O)N1CCC(N2CCCC2)CC1` [Example 62, [3-Methyl-6-(pyridin-3-yloxy)-5-(3-trifluoromethyl-phenyl)-pyridin-2-yl]-(4-pyrrolidin-1-yl-piperidin-1-yl)-methanone], the IC50 is 69 nM.
For the compound `COc1nc(C(=O)N2CCC(N3CCCC3)CC2)c(Cl)cc1-c1cccc(C(F)(F)F)c1` [Example 22, [3-Chloro-6-methoxy-5-(3-trifluoromethyl-phenyl)-pyridin-2-yl]-(4-pyrrolidin-1-yl-piperidin-1-yl)-methanone], the IC50 turned out to be 18 nM.
As for `Cc1cc(-c2cccc(C(F)(F)F)c2)c(-n2cnc(Cl)n2)nc1C(=O)N1CCC(N2CCCC2)CC1` [Example 20, [6-(3-Chloro-[1,2,4]triazol-1-yl)-3-methyl-5-(3-trifluoromethyl-phenyl)-pyridin-2-yl]-(4-pyrrolidin-1-yl-piperidin-1-yl)-methanone], the IC50 is 4 nM.
As for `Cc1cc(-c2cccc(C(F)(F)F)c2)c(CO)nc1C(=O)N1CCC(N2CCCC2)CC1` [Example 46, [6-Hydroxymethyl-3-methyl-5-(3-trifluoromethyl-phenyl)-pyridin-2-yl]-(4-pyrrolidin-1-yl-piperidin-1-yl)-methanone], the IC50 is 12 nM.
In the case of `Cc1cc(-c2cccc(C(F)(F)F)c2)c(-c2cnn(C)c2)nc1C(=O)N1CCC(N2CCCC2)CC1` [Example 50, [3-Methyl-6-(1-methyl-1H-pyrazol-4-yl)-5-(3-trifluoromethyl-phenyl)-pyridin-2-yl]-(4-pyrrolidin-1-yl-piperidin-1-yl)-methanone], the IC50 was 18 nM.
As for `CNC(=O)c1nc(C(=O)N2CCC(N3CCCC3)CC2)c(C)cc1-c1cccc(C(F)(F)F)c1` [Example 58, 5-Methyl-6-(4-pyrrolidin-1-yl-piperidine-1-carbonyl)-3-(3-trifluoromethyl-phenyl)-pyridine-2-carboxylic acid methylamide], the IC50 turned out to be 190 nM.
`Cc1cc(-c2cccc(C(F)(F)F)c2)n(C)c(=O)c1C(=O)N1CCC(N2CCCC2)CC1` [Example 13, 1,4-Dimethyl-3-(4-pyrrolidin-1-yl-piperidine-1-carbonyl)-6-(3-trifluoromethyl-phenyl)-1H-pyridin-2-one]: the IC50 turned out to be 58 nM.
Turning to `Cc1cc(-c2cccc(C(F)(F)F)c2)c(O)nc1C(=O)N1CCC(N2CCCC2)CC1` [Example 9, [6-Hydroxy-3-methyl-5-(3-trifluoromethyl-phenyl)-pyridin-2-yl]-(4-pyrrolidin-1-yl-piperidin-1-yl)-methanone; 5-Methyl-6-(4-pyrrolidin-1-yl-piperidine-1-carbonyl)-3-(3-trifluoromethyl-phenyl)-1H-pyridin-2-one (tautomers)], the IC50 came to 6.4 nM.
`CC(=O)N(C(C)=O)c1nc(C(=O)N2CCC(N3CCCC3)CC2)c(C)cc1-c1cccc(C(F)(F)F)c1` [Example 10, N-Acetyl-N-[5-methyl-6-(4-pyrrolidin-1-yl-piperidine-1-carbonyl)-3-(3-trifluoromethyl-phenyl)-pyridin-2-yl]-acetamide]: the IC50 turned out to be 78 nM.
As for `Cc1cc(-c2cccc(C(F)(F)F)c2)c(C(=O)NCCO)nc1C(=O)N1CCC(N2CCCC2)CC1` [Example 55, 5-Methyl-6-(4-pyrrolidin-1-yl-piperidine-1-carbonyl)-3-(3-trifluoromethyl-phenyl)-pyridine-2-carboxylic acid (2-hydroxy-ethyl)-amide], the IC50 came out at 130 nM.
In the case of `Cc1cc(-c2cccc(C(F)(F)F)c2)c(Cl)nc1C(=O)N1CCC(N2CCCC2)CC1` [Example 3, [6-Chloro-3-methyl-5-(3-trifluoromethyl-phenyl)-pyridin-2-yl]-(4-pyrrolidin-1-yl-piperidin-1-yl)-methanone], the IC50 was determined as 4 nM.
As for `Cc1cc(-c2cccc(C(F)(F)F)c2)c(OCCO)nc1C(=O)N1CCC(N2CCCC2)CC1` [Example 66, [6-(2-Hydroxy-ethoxy)-3-methyl-5-(3-trifluoromethyl-phenyl)-pyridin-2-yl]-(4-pyrrolidin-1-yl-piperidin-1-yl)-methanone], the IC50 worked out at 200 nM.
`Cc1cc(-c2cccc(C(F)(F)F)c2)c(-c2ccc(O)nc2)nc1C(=O)N1CCC(N2CCCC2)CC1` [Example 41, [6′-Hydroxy-5-methyl-3-(3-trifluoromethyl-phenyl)-[2,3′]bipyridinyl-6-yl]-(4-pyrrolidin-1-yl-piperidin-1-yl)-methanone]: the IC50 was 16 nM.
Take `Cc1cc(-c2cccc(C(F)(F)F)c2F)cnc1C(=O)N1CCC(N2CCCC2)CC1` [Example 36, [5-(2-Fluoro-3-trifluoromethyl-phenyl)-3-methyl-pyridin-2-yl]-(4-pyrrolidin-1-yl-piperidin-1-yl)-methanone]: the IC50 came out at 180 nM.
As to `COc1ncc(-c2nc(C(=O)N3CCC(N4CCCC4)CC3)c(C)cc2-c2cccc(C(F)(F)F)c2)cn1` [Example 44, [6-(2-Methoxy-pyrimidin-5-yl)-3-methyl-5-(3-trifluoromethyl-phenyl)-pyridin-2-yl]-(4-pyrrolidin-1-yl-piperidin-1-yl)-methanone], the IC50 came out at 12 nM.
With `Cc1cc(-c2cc(F)cc(C(F)(F)F)c2)cnc1C(=O)N1CCC(N2CCCC2)CC1` [Example 37, [5-(3-Fluoro-5-trifluoromethyl-phenyl)-3-methyl-pyridin-2-yl]-(4-pyrrolidin-1-yl-piperidin-1-yl)-methanone], the IC50 was 36 nM.
Consider `Cc1cc(-c2cccc(C(F)(F)F)c2)c(-c2cccnc2)nc1C(=O)N1CCC(N2CCCC2)CC1` [Example 16, [5-Methyl-3-(3-trifluoromethyl-phenyl)-[2,3′]bipyridinyl-6-yl]-(4-pyrrolidin-1-yl-piperidin-1-yl)-methanone], for which the IC50 came out at 4.2 nM.
For the compound `Cc1cc(-c2cccc(C(F)(F)F)c2)c(-c2cnccn2)nc1C(=O)N1CCC(N2CCCC2)CC1` [Example 51, [3-Methyl-6-pyrazin-2-yl-5-(3-trifluoromethyl-phenyl)-pyridin-2-yl]-(4-pyrrolidin-1-yl-piperidin-1-yl)-methanone], the IC50 turned out to be 5.5 nM.
Regarding `Cc1cc(-c2cccc(C(F)(F)F)c2)c(S)nc1C(=O)N1CCC(N2CCCC2)CC1` [Example 64, [6-Mercapto-3-methyl-5-(3-trifluoromethyl-phenyl)-pyridin-2-yl]-(4-pyrrolidin-1-yl-piperidin-1-yl)-methanone; [3-Methyl-6-thioxo-5-(3-trifluoromethyl-phenyl)-1,6-dihydro-pyridin-2-yl]-(4-pyrrolidin-1-yl-piperidin-1-yl)-methanone (tautomers)], the IC50 was 300 nM.
For `Cc1cc(-c2cc(C(F)(F)F)ccc2Cl)cnc1C(=O)N1CCC(N2CCCC2)CC1` [Example 30, [5-(2-Chloro-5-trifluoromethyl-phenyl)-3-methyl-pyridin-2-yl]-(4-pyrrolidin-1-yl-piperidin-1-yl)-methanone], the IC50 worked out at 54 nM.
